The test system of series [1] is acute thermal nociception. Briefly: Hot-plate assay in mice after sc administration. In kind it is in vivo. As to conditions: Mus musculus, 0.5 h, read-out: antinociceptive activity hot-plate assay ED50 (95% CI).
The next series deals with human KOR (Homo sapiens, UniProt P41145). The series is described as follows: Competition binding assay, [3H]HS665, CHO-hKOR cell membranes. The following applies: for selectivity KOR/MOR: ratio of Ki values; for Ki: read-out: opioid receptor binding, Ki, affinity KOR, CHO-hKOR membranes, [3H]HS665, mean ± SEM, at least three experiments.
The target of another series is human DOR (Homo sapiens, UniProt P41143). Briefly: Competition binding assay, [3H]diprenorphine, CHO-hDOR cell membranes. The following applies: for selectivity DOR/MOR: ratio of Ki values; for Ki: read-out: opioid receptor binding, Ki, affinity DOR, CHO-hDOR membranes, [3H]diprenorphine, mean ± SEM, at least three experiments.
Series [2] has as its target T1, human MOR (Homo sapiens, UniProt P35372). The series is described as follows: [35S]GTPγS binding assay using CHO-hMOR cell membranes. In kind it is biochemical. The following applies: for Emax: read-out: functional activity [35S]GTPγS MOR % stim; for EC50: read-out: functional activity [35S]GTPγS MOR EC50, mean ± SEM. (Binding of GTPγS marks nucleotide exchange on a G protein.)

Series [3] concerns the target T1, human MOR. Briefly: Competition binding assay, [3H]DAMGO, CHO-hMOR cell membranes. As to conditions: for Ki: read-out: opioid receptor binding, Ki, affinity MOR, CHO-hMOR membranes, [3H]DAMGO, mean ± SEM, at least three experiments.
Another series concerns MOR. The following applies: 14-methoxy group introduced into 1; ref 6a, 6b; cited from earlier work.
The subject of a further series is antinociception. As to conditions: cited from earlier work.
Series [4] deals with gastrointestinal motility. As to conditions: ref 6b; cited from earlier work.

A word on the ED50: it is the dose at which the effect has come halfway, by size or by number of responders. As to `CN1CC[C@]23c4c5ccc(O)c4O[C@H]2C(=O)CC[C@@]3(O)[C@H]1C5` [Compound 1, oxymorphone, reference compound], the 50% effective dose (ED50) in series [1] was 0.382 mg/kg.

Broadly, the Ki is the dissociation constant of the complex between target and ligand, obtained from inhibition or displacement. As a reminder, the EC50 is the concentration giving half of the maximal effect. `CN1CC[C@]23c4c5ccc(O)c4O[C@H]2CCC[C@@]3(O)[C@H]1C5` [Compound 1a, 3,14-Dihydroxy-4,5α-epoxy-17-methylmorphinan]: on human KOR, the “selectivity KOR/MOR” value is reported as 13 and the Ki worked out at 21.6 ± 3.9 nM. In addition, the “decrease in affinity to the DOR, 1a vs 1” value at human DOR (human DOR, Ki ratio) is recorded as ~3 fold. Moreover, at human DOR, the “selectivity DOR/MOR” value was found to be 122 and the Ki was found to be 201 ± 80 nM. Moreover, the ED50 in series [1] was 0.383 mg/kg. The Emax on human MOR [2] was 104 ± 7%. For the same molecule, the EC50 at human MOR [2] (CHO-hMOR membranes) was 8.99 ± 2.19 nM. Also, the inhibition constant (Ki) on human MOR [3] was 1.65 ± 0.5 nM.

Consider `CO[C@@]12CCC(=O)[C@@H]3Oc4c(O)ccc5c4[C@@]31CCN(C)[C@@H]2C5` [Compound 2, 14-O-methyloxymorphone], for which, on human KOR, the “selectivity KOR/MOR” value stood at 32 and the inhibition constant (Ki) was found to be 10.1 ± 3.1 nM. Further, on human DOR, the “selectivity DOR/MOR” value is 28 and the inhibition constant Ki worked out at 8.8 ± 0.35 nM. In the series on MOR, the “increase in MOR affinity vs oxymorphone (1)” value is reported as ~9 fold. In addition, in series [1], the 50% effective dose (ED50) came to 0.0142 mg/kg. For the same molecule, on human MOR [2], the Emax came to 96.4 ± 5%. For the same molecule, the concentration for a half-maximal effect (EC50) on human MOR [2] (CHO-hMOR membranes) was determined as 1.45 ± 0.32 nM. Moreover, the “increase in antinociceptive potency vs oxymorphone (1)” value in the series on antinociception (ref 6a, 6b) was 40 fold. For the same molecule, on human MOR [3], the Ki amounted to 0.32 ± 0.08 nM.

Consider `CO[C@@]12CCC[C@@H]3Oc4c(O)ccc5c4[C@@]31CCN(C)[C@@H]2C5` [Compound 2a, 4,5α-Epoxy-3-hydroxy-14β-methoxy-17-methylmorphinan], for which the “selectivity KOR/MOR” value on human KOR was 17. The Ki came out at 3.99 ± 0.63 nM on human KOR, 8.64 ± 2.25 nM at human DOR and 0.24 ± 0.08 nM on human MOR [3]. The “selectivity DOR/MOR” value on human DOR was 36. Further, the ED50 in series [1] was determined as 0.0173 mg/kg. The Emax on human MOR [2] was found to be 105 ± 6%. The EC50 at human MOR [2] (CHO-hMOR membranes) came out at 1.37 ± 0.26 nM.

Turning to `CN1CC[C@]23c4c5ccc(O)c4O[C@H]2C(=O)CC[C@@]3(OCc2ccccc2)[C@H]1C5` [Compound 3, 14-O-benzyloxymorphone], on human KOR, the “selectivity KOR/MOR” value amounted to 2.8 and the Ki is 1.27 ± 0.24 nM. On human DOR, the “selectivity DOR/MOR” value is given as 2.3 and the inhibitory constant (Ki) was 1.05 ± 0.42 nM. For the same molecule, the 50% effective dose (ED50) in series [1] came out at 0.00238 mg/kg. Further, the Emax at human MOR [2] came out at 101 ± 5%. On human MOR [2] (CHO-hMOR membranes), the 50% effective concentration (EC50) amounted to 0.32 ± 0.16 nM. Further, the “increased antinociceptive potency compared to 2” value with antinociception (ref 6b) is on record as 5 fold. In addition, on human MOR [3], the Ki came out at 0.45 ± 0.1 nM. Further, in series [4], the “inhibition of gastrointestinal motility” value is “negligible”, the “less constipating than 2” value is given as 7 fold and the “less constipating than morphine” value was 2.5 fold.

`CN1CC[C@]23c4c5ccc(O)c4O[C@H]2CCC[C@@]3(OCc2ccccc2)[C@H]1C5` [Compound 3a, 14β-Benzyloxy-4,5α-epoxy-3-hydroxy-17-methylmorphinan]: the “higher MOR/KOR selectivity ratio than 3” value on human KOR (3a vs 3) was ~6 fold. In addition, the “selectivity KOR/MOR” value at human KOR is reported as 18. The Ki stood at 0.85 ± 0.05 nM on human KOR, 0.89 ± 0.29 nM at human DOR and 0.048 ± 0.011 nM on human MOR [3]. For the same molecule, the “higher MOR/DOR selectivity ratio than 3” value on human DOR (3a vs 3) was “about 9 fold”. Also, the ED50 in series [1] amounted to 0.00241 mg/kg. For the same molecule, the “increase in the EC50 of 3a compared to 3” value at human MOR [2] ([35S]GTPγS, human MOR) was ~2.5 fold. For the same molecule, the Emax at human MOR [2] was found to be 103 ± 8%. Further, at human MOR [2] (CHO-hMOR membranes), the 50% effective concentration (EC50) turned out to be 0.13 ± 0.03 nM. The “increase in MOR affinity, 3a vs 3” value at human MOR [3] (human MOR, Ki ratio) is given as “up to 9 fold”.

On to `CO[C@@]12CCC(=O)[C@]3(C)Oc4c(O)ccc5c4[C@@]31CCN(C)[C@@H]2C5` [Compound 4, 14-methoxymetopon], for which, at human KOR, the “selectivity KOR/MOR” value is recorded as 60 and the Ki came out at 15.1 ± 0.9 nM. On human DOR, the “selectivity DOR/MOR” value is on record as 79 and the Ki was 19.8 ± 1.3 nM. The ED50 in series [1] came to 0.0271 mg/kg. The Emax on human MOR [2] amounted to 99.2 ± 2.8%. In addition, the EC50 on human MOR [2] (CHO-hMOR membranes) was 3.28 ± 0.81 nM.

For the molecule `CO[C@@]12CCC[C@]3(C)Oc4c(O)ccc5c4[C@@]31CCN(C)[C@@H]2C5` [Compound 4a, 5β,17-Dimethyl-4,5α-epoxy-3-hydroxy-14β-methoxymorphinan], the values for the inhibitory constant (Ki) at human KOR, at human DOR and on human MOR [3] were 7.92 ± 4.47 nM, 12.9 ± 1.6 nM and 0.34 ± 0.08 nM, respectively. Moreover, the 50% effective dose (ED50) in series [1] is 0.0251 mg/kg. Also, the concentration giving a half-maximal response (EC50) at human MOR [2] (CHO-hMOR membranes) worked out at 2.95 ± 0.54 nM.

As to `C[C@@H](NC(=O)[C@@H](N)Cc1ccc(O)cc1)C(=O)NCC(=O)N(C)[C@@H](Cc1ccccc1)C(=O)NCCO` [DAMGO, [D-Ala^2,Me-Phe^4,Gly-ol^5]enkephalin, reference compound], the “% stim of the reference full agonist DAMGO in [35S]GTPγS binding” value at human MOR [2] (CHO-hMOR membranes, DAMGO's own stimulation, the reference for efficacies) is listed as 221 ± 13%.
